Experimental data: ChEMBL document CHEMBL3098123, “New inhibitors of cytomegalovirus DNA polymerase” (ACS Med Chem Lett, 2013)

Experiment: Inhibition of GST-tagged recombinant human cytomegalovirus DNA polymerase catalytic subunit UL54 expressed in baculovirus infected insect Sf21 cells assessed as incorporation of biotin-tagged dUTP after 30 mins by LANCE TR-FRET assay
Design: species or system Human betaherpesvirus 5

Row | SMILES | IC50 [nM]
1 | COc1cc(N)nc2c1cc(C(=O)NCc1ccc(Cl)cc1)c(=O)n2CC(=O)N(C)CC1(CO)COC1 | 22
2 | CC1(C)CN(C(=O)Cn2c(=O)c(C(=O)NCc3ccc(Cl)cc3)cc3cc(-c4nn[nH]n4)cnc32)C1 | 30
3 | CN(CC(=O)O)c1ccnc2c1cc(C(=O)NCc1ccc(Cl)cc1)c(=O)n2CC(=O)N1CC(C)(C)C1 | 50
